Structures can show the parent of a compound that is named as a salt. Where two headings read alike, the source gives them in different places. Each block holds one molecule with its values, some of them ahead of it.
Tests used:
[1] = Hygroscopicity by dynamic vapor sorption (DVS); format: physicochemical; settings: for Hygroscopicity class: Chinese Pharmacopoeia 2015 guideline 9103, 25° C.; for Weight gain under 80% Relative Humidity: about 10 mg sample
Protocol: Dynamic vapor sorption (DVS) was applied to assess hygroscopicity of Form E and Form M in patent CN103781770B with about 10 mg of samples. The DVS plots of Form E and Form M were substantially as depicted in FIG. 8 and FIG. 9, respectively.
About hygroscopicity characterization description and definition of hygroscopicity (Chinese Pharmacopoeia 2015 edition general notices 9103 Drug hygroscopicity test guidelines, test at 25° C.+/−1° C., 80% Relative Humidity). • deliquescent: Sufficient water is absorbed to form a liquid; • very hygroscopic: Increase in mass is equal to or greater than 15 percent; • hygroscopic: Increase in mass is less than 15 percent and equal to or greater than 2 percent; • slightly hygroscopic: Increase in mass is less than 2 percent and equal to or greater than 0.2 percent. • no or almost no hygroscopic: Increase in mass is less than 0.2%.

[2] = Stability of solid form on storage, checked by XRPD; format: physicochemical; settings: for Final Solid Form: 11 months, XRPD
Protocol: Solid samples of Form E were stored under conditions of 25° C./60% relative humidity (RH) and 40° C./75% RH for 11 months and XRPD were tested. The XRPD patterns before and after storage were substantially as depicted in FIG. 7.
Form E remains stable for at least 11 months under conditions of 25° C./60% RH and 40° C./75% RH. […] The XRPD patterns overlay are substantially as depicted in FIG. 7, in which the top, middle and bottom patterns correspond to the initial sample, sample stored at 25° C./60% RH for 11 months and sample stored at 40° C./75% RH for 11 months, respectively.

[3] = cited from earlier work
[4] = converts to liquid crystalline form B spontaneously when stored for some time; cited from earlier work

Weight gain under 80% Relative Humidity ([1]; DVS, 80% RH): 1.82%
Time the form remains stable ([2]; 25° C./60% RH and 40° C./75% RH): at least 11 months
Final Solid Form ([2]; 25° C./60% RH): Form E
Final Solid Form ([2]; 40° C./75% RH): Form E
Compound: O=C(O)c1ccc2nc(-c3cc(Cl)cc(Cl)c3)oc2c1 [Form E, 6-carboxy-2-(3,5-dichlorophenyl)-benzoxazole meglumine salt]
Hygroscopicity class ([1]; 80% RH): slightly hygroscopic (Increase in mass is less than 2 percent and equal to or greater than 0.2 percent)

Weight gain under 75% RH ([1]; DVS, 75% RH): 2.98%
Weight gain under 80% Relative Humidity ([1]; DVS, 80% RH): 2.98%-4.65%
Weight gain under 80% RH, inferred from FIG. 8 ([1]; DVS, 80% RH, inferred from the 75% RH value): > 2.98%
Hygroscopicity (in words) ([1]; background statement, "Studies show"): high
Compound: O=C(O)c1ccc2nc(-c3cc(Cl)cc(Cl)c3)oc2c1 [Form M, 6-carboxy-2-(3,5-dichlorophenyl)-benzoxazole meglumine salt]
Hygroscopicity class ([1]; 80% RH): hygroscopic (Increase in mass is less than 15 percent and equal to or greater than 2 percent)

Compound: O=C(O)c1ccc2nc(-c3cc(Cl)cc(Cl)c3)oc2c1 [Liquid crystalline form B, 6-carboxy-2-(3,5-dichlorophenyl)-benzoxazole meglumine salt]
Weight gain when stored at 90% relative humidity ([3]; 90% relative humidity): up to 25%
Hygroscopicity (in words) ([3]; prior-art description): highly deliquescent

Compound: O=C(O)c1ccc2nc(-c3cc(Cl)cc(Cl)c3)oc2c1 [amorphous form A, 6-carboxy-2-(3,5-dichlorophenyl)-benzoxazole meglumine salt]
Stability (in words) [4]: poor stability
